Experimental data: US12544335B2, “Treatment approach by targeted delivery of bioactive molecules” (priority 2018, dated 2026)

Tests used:
[1] = In-vitro doxorubicin binding to apatite particles; conditions: 10 μg Doxorubicin in 1 mL PBS, 48 h
Method: Methods: 5 mg, 10 mg and 20 mg apatite particles were suspended in 1 mL PBS containing 10 μg Doxorubicin and homogenously distributed in the suspension using sonication for 5 min. The specimens were rotated gently on a rotational shaker for 48 h (speed: 50 rpm). After 48 h, the specimens were centrifuged to obtain a pellet of the apatite particles and the supernatant was collected. The apatite particles were then resuspended in 1 mL of PBS, thoroughly pipetted to wash the unbound drug. At this point, the particles were centrifuged again and the supernatant was collected. The washing was repeated once again using the same protocol and the supernatant from the original time and 2 supernatants from the washing steps were measured for fluorescence on a spectro fluorimeter (excitation: 485 nm and emission: 580 nm). Bound doxorubicin to the apatite particles was also detected using fluorescence microscopy. Unbound free drug was used as a control.

[2] = In-vitro doxorubicin release from CaS/HA pellets; format: physicochemical
Method: Methods: Pellets of CaS/HA biomaterial were made by mixing 10 μg Doxorubicin/pellet. Each pellet containing 10 μg Doxorubicin was immersed in 1 mL PBS at two different pH (5 and 7.4). At each time point, old PBS was frozen until further analysis and the tube refilled with 1 mL fresh PBS. The experiment was conducted for a period of 4-weeks. Supernatants were analyzed on a spectro fluorimeter (excitation: 485 nm and emission: 580 nm).

[3] = In-vivo doxorubicin binding to nano apatite particles in muscle pouch, fluorescence microscopy; design: species or system rats
Method: Methods: 25 mg of nano sized apatite particles (size <200 nm) were implanted in the abdominal muscle pouch of rats. Animals were injected with 5 mg/kg doxorubicin re-suspended in PBS 2-weeks post implantation and the animals were sacrificed 1 day later. The specimens were harvested from the implanted muscle pouch and as a positive control, the site of doxorubicin systemic injection (skin under the neck) was also taken for histology. The samples were embedded in paraffin and cut to a thickness of 5 μm. The samples were then analyzed on a fluorescent microscope (excitation: 485 nm and emission: 580 nm).

[4] = Accretion and long-term availability of 14C-ZA in CaS/HA in femoral neck canal; format: in vivo, osteoporotic rats; conditions: systemic dose 0.1 mg/kg 2 weeks post implantation
Method: Methods: The CaS/HA biomaterial was implanted in the femoral neck canal of 6 osteoporotic rats. The animals (n=3) then received a systemic (sub-cutaneous) dose of ^14C-ZA (0.1 mg/kg, specific radioactivity: 7.1 MBq/mL) 2-weeks post implantation. The animals were sacrificed 6 months post implantation (5 months and 2 weeks post injection). Results: The uptake of ^14C-ZA in the animals that were given a systemic dose of ^14C-ZA was verified using scintillation counting. Results are illustrated in FIG. 6.

[5] = Re-loading of apatite particles by repeated 14C-ZA injection; format: in vivo, rats; conditions: injections day 14 and day 27, average
Method: Methods: We used 25 mg of micro sized pure apatite particles (size: 10 μm) and 25 mg of nano sized apatite particles (size: <200 nm) and placed them bilaterally in the abdominal muscle pouch of rats. Two different time points were used. At time point 1 (day 14), all animals received the same amount of the radioactive ^14C-ZA. […] All animals were sacrificed a day later and the uptake of the drug measured in the apatite particles of two different sizes using scintillation counting.

[6] = Apatite particle size dependence of 14C-ZA uptake in muscle pouch; format: in vivo, rats; conditions: 25 mg particles, 0.1 mg/kg ZA 2 weeks post implantation, 1 day post injection
Method: Method: We used 25 mg of micro sized pure apatite particles (size: 10 μm) and 25 mg of nano sized apatite particles (size: <200 nm) and placed them bilaterally in the abdominal muscle pouch of rats. Each animal then received a systemic dose of ^14C-ZA 2-weeks post implantation (Injection dose: 0.1 mg/kg ZA, drug/rat: 40 μg, specific radioactivity: 7.1 MBq/mL, ZA concentration: 1 mg/mL). The rats were sacrificed 1-day post injection and the radioactivity in micro and nano apatite particles was measured using scintillation counting.

[7] = Uptake of systemic 14C-ZA in CaS/HA pellet in abdominal muscle pouch; format: in vivo, rats
Method: 2-weeks after surgery, the animals were injected with ^14C labelled ZA (0.1 mg/kg, specific radioactivity: 7.1 MBq/mL) via the systemic route (sub-cutaneous) and the radioactivity was measured in 1) the CaS/HA pellet placed in the muscle and 2) surrounding muscle 24-h later.

[8] = Long term elution of gentamycin from HA/Sulphate carrier; format: physicochemical
S. aureus = test: Example 18: zone of inhibition of materials harvested from rat muscle pouch; format: cell-based; conditions: Cerament G / Cerament V, 2 weeks implanted, no systemic antibiotic
From the text: Small pellets of pristine hydroxyapatite (HA) of nano or micro size (wherein the micro-HA particles are about 10 μm, wherein the nano-HA particles are less than 200 nm and a majority of the nano-HA particles about 50 nm) were implanted in the abdominal muscle pouch of rats (Group 1). In another set of animals, pellets of calcium sulphate and micro-sized HA (Cerament) containing gentamycin (Cerament G) or vancomycin (Cerament V) were implanted in the muscle pouch of rats (Group 2).
[…] Tibial cortical bone samples were also collected as positive control and muscle tissue from the abdomen was collected as a negative control.
In group 2, no antibiotics were administered systemically, and the implants only contained locally added antibiotics at the time of administration.
All samples were snap frozen in liquid nitrogen and pulverized using a mortar and pestle. Pulverized specimens were then placed in a silicon mold, casted as a pellet and placed in a bacterial culture plate containing S. aureus, a common pathogen found in bone and joint infections.

[9] = In-vitro release of isoniazid from CaS/HA pellets in PBS; format: physicochemical; conditions: day 1, PBS
Method: Method: Isoniazid was mixed to CaS/HA biomaterial and equal volume pellets were created. Each pellet was then placed in a 1.5 mL tube and filled with 1 mL phosphate buffered saline (PBS). At each time point, the old PBS was removed and frozen until the day of analysis. The tube was refilled with fresh PBS (1 mL). All samples were analyzed spectrophotometrically and the concentration of the released antibiotic was calculated from a standard curve of isoniazid made in PBS.

[10] = Tetracycline uptake in CaS/HA pellet in muscle pouch, fluorescence microscopy; conditions: 1 day later
Method: Methods: A pellet of CaS/HA biomaterial (5 mm diameter×2 mm height) was placed in an abdominal muscle pouch of rats. […] 1-day later, the animals were sacrificed and the pellet of CaS/HA as well as surrounding muscle was harvested, fixed in formalin (4%) and embedded in paraffin. The tissue was then cut using a microtome to a thickness of 5 μm. The sections were de-paraffinized using xylene, rehydrated using decreasing ethanol gradient and cleared in water. Finally, the sections were analyzed on a fluorescence microscope (Zeiss, Japan Filter: FITC, Gain: 0, Exposure: 150 ms).

S. aureus ATCC 25923 = test: In-vivo biomodulation of HA pellets by systemic TET, disk diffusion assay; format: cell-based; conditions: TET 25 mg/rat i.p. for 3 days, 24 h after 3rd injection
Method: METHODS: (1) In-vitro binding experiment: Nano-HA powder of <200 nm particle size, with a majority of the particles being in size of about 50 nm (100 mg; Fluidnova) was measured in 2 mL microcentrifuge tubes in triplicates and 1 mL of TET solution (4 μg/mL) was added. After vortex mixing, tubes were kept on a rotator at 180 RPM for 1, 6, and 12 h. At desired time points, the tubes were removed and centrifuged at 14000 RPM for 2 min. The supernatant was discarded and sediments were then “washed” 4 times by adding 1 mL of saline (NaCl 0.9%) followed by vortex mixing and centrifuging at 14000 RPM for 2 min. After 4 washing-cycles, supernatants were discarded and 60 μL of hyaluronic acid (HAD, 1 mg/mL) was added to the sediments and mixed. Pastes were then transferred to an elastic mold (Ø=4.7 mm) and placed at −20° C. for an hour to freeze nano-HA paste into pellet. Frozen pellets were removed from the molds and brought to room temperature. […] After overnight incubation at 37° C., the diameter of the zone of inhibition (ZOI) around the pellets were measured.
(2) In-vivo biomodulation: Pellets of nano-/micro-HA were prepared by mixing 100 mg of nano-/micro-HA (Fluidnova, wherein the micro-HA particles are about 10 μm, and wherein the nano-HA particles are less than 200 nm and a majority of the nano-HA particles about 50 nm) with 60 and 80 μL of HAD, (1 mg/mL) respectively. […]

With `COc1cccc2c1C(=O)c1c(O)c3c(c(O)c1C2=O)C[C@@](O)(C(=O)CO)C[C@@H]3O[C@H]1C[C@H](N)[C@H](O)[C@H](C)O1` [doxorubicin] the “drug bound to apatite particles” value ([1]; 5 mg apatite particles) was “approximately 10%”, the “drug bound to apatite particles” value ([1]; 10 mg apatite particles) was 30% and the “drug bound to apatite particles” value ([1]; 20 mg apatite particles) was “approximately 75%”. For the same molecule, the “release at later time points” value ([2]; after day 3, up to 4 weeks) was “No further release”, the “burst release of the drug from CaS/HA” value ([2]; day 1 and 3, PBS pH 5 and 7.4, 10 μg/pellet) was 20-35% and the “release in low pH group compared with pH 7.4” value ([2]; pH 5 vs 7.4) was “slightly higher release”. For the same molecule, the “fluorescence at the site of injection” value ([3]; 5 mg/kg, 1 day after injection, positive control site) was “Strong fluorescent staining”, the “fluorescence in muscle 1 cm distal from the implant” value ([3]; 5 mg/kg, 1 day later) was “did not show any fluorescence” and the “fluorescence in apatite particles and area immediately around” value ([3]; 25 mg nano apatite, 5 mg/kg 2 weeks post implantation, 1 day later) was “relatively weak but positive signal”.
For `O=P(O)(O)C(O)(Cn1ccnc1)P(=O)(O)O` [ZA, Zoledronic Acid], the “time the drug stays in the apatite material” value ([4]; listed as zoledronic acid) was 6 months.
For `O=P(O)(O)C(O)(Cn1ccnc1)P(=O)(O)O` [^14C-ZA], the “increase of counts of 14C-ZA after 2 injections compared to one injection” value ([5]; micro-particles (10 μm)) was 72%, the “higher counts of 14C-ZA after 2 injections compared to one injection” value ([5]; nano-apatite particles (<200 nm)) was 77% and the “uptake of 14C-ZA, micro (10 μm) vs nano (<200 nm) apatite particles” value [6] was “higher in micro-apatite particles compared to nano-apatite particles in 4 out of 5 specimens”. For the same molecule, the “uptake of 14C-ZA in CaS/HA biomaterial” value ([7]; 0.1 mg/kg sub-cutaneous 2 weeks after surgery, measured 24 h later) was “obvious”, the “radioactivity in muscle surrounding the implant” value ([7]; 0.1 mg/kg sub-cutaneous, 24 h later) was “very low radioactive counts” and the “time the drug stays in the apatite material” value [4] was “at least 6 months”.
In the case of Gentamycin, the “release of gentamycin from biphasic HA/Sulphate carrier” value ([8]; at one month) is reported as “complete release”, the “time by which the Apatite/Sulphate material releases gentamycin” value ([8]; trend line, elution over 2 months) is reported as no more than 4 weeks and the “inhibition of bacterial growth by CaS/HA with locally added antibiotic” value (S. aureus) is reported as “could not inhibit bacterial growth”.
With `NNC(=O)c1ccncc1` [Isoniazid] the “antibiotic released from CaS/HA” value [9] was “approximately 60%”.
With `CN[C@H](CC(C)C)C(=O)N[C@H]1C(=O)N[C@@H](CC(N)=O)C(=O)N[C@H]2C(=O)N[C@H]3C(=O)N[C@H](C(=O)N[C@H](C(=O)O)c4cc(O)cc(O)c4-c4cc3ccc4O)[C@H](O)c3ccc(c(Cl)c3)Oc3cc2cc(c3O[C@@H]2O[C@H](CO)[C@@H](O)[C@H](O)[C@H]2O[C@H]2C[C@](C)(N)[C@H](O)[C@H](C)O2)Oc2ccc(cc2Cl)[C@H]1O` [Vancomycin] the “inhibition of bacterial growth by CaS/HA with locally added antibiotic” value (S. aureus) was “could not inhibit bacterial growth”.
With `CN(C)[C@@H]1C(O)=C(C(N)=O)C(=O)[C@@]2(O)C(O)=C3C(=O)c4c(O)cccc4[C@@](C)(O)[C@H]3C[C@@H]12` [tetracycline] the “uptake of tetracycline in CaS/HA biomaterial” value ([10]; 25 mg/kg sub-cutaneous 2 weeks after surgery) was “clear uptake”, the “uptake of tetracycline in surrounding muscle” value ([10]; 25 mg/kg sub-cutaneous) was “no uptake” and the “ZOI of kidney samples” value (S. aureus ATCC 25923) was 14-17 mm. For the same molecule, the “ZOI of liver samples” value (S. aureus ATCC 25923) was 10-12 mm.
